Earlier results as cited in publication PMC3819144 (Biochemical pharmacology, 2013).

What was measured:
CXCR7 [1] = system: CXCR7
CXCR7 [2] = conditions: requires relatively high concentrations

c1cc(CN2CCCNCCNCCCNCC2)ccc1CN1CCCNCCNCCCNCC1 [AMD3100]
CXCR7 signaling through β-arrestin 2 / recruitment of β-arrestin 2 (CXCR7 [1]): modestly activate CXCR7 signaling through β-arrestin 2
effect on binding of CXCL12 to CXCR7 (CXCR7 [2]): enhance binding of CXCL12 to CXCR7
